≈ marks a conversion by molar mass, not a printed value.
Assays:
Staphylococcus aureus = experiment: Antimicrobial activity against Staphylococcus aureus 29213 assessed as increase in absorbance incubated for 20 to 22 hrs; assay type: functional; conditions: time 20-22 hrs
Chymotrypsin = Chymotrypsin (Homo sapiens, UniProt Q99895+P17538+P40313+Q6GPI1); experiment: Stability of compound assessed as chymotrypsin (unknown origin)-mediated compound structural integrity change at 8 mg/ml incubated for 1 to 8 hrs by RP-HPLC analysis; assay type: ADME, protein assay; conditions: time 1-8 hrs
Escherichia coli [1] = experiment: Reduction in intracellular ATP level in Escherichia coli ATCC 25922 at 2 uM measured after 1 hr incubation by Enhanced ATP assay kit; assay type: functional; parameters: scale not given: the % may be the effect or the level left
Escherichia coli [2] = experiment: Bactericidal activity against Escherichia coli ATCC 25922 assessed as reduction in bacterial viability at 4 uM measured within 1 hr; assay type: functional
[3] = Toxicity in ICR mouse assessed as alkaline phosphatase (ALP) level in serum at 5 to 20 mg/kg, ip measured after 3 days; assay type: organism-based; conditions: in vivo, 72 h, dose 5-20 mg/kg, time 3 day

In the case of `CCCCCCCCCC(=O)NCCCC[C@H](N)C(=O)NCC(=O)NCC(=O)NCC(=O)N[C@H](CCCNC(=N)N)C(=O)N[C@@H](CCCNC(=N)N)C(=O)N[C@@H](CCCNC(=N)N)C(=O)N1CCC[C@H]1C(=O)N[C@@H](CSSC[C@H](NC(=O)[C@@H]1CCCN1C(=O)[C@H](CCCNC(=N)N)NC(=O)[C@H](CCCNC(=N)N)NC(=O)[C@@H](CCCNC(=N)N)NC(=O)CNC(=O)CNC(=O)CNC(=O)[C@@H](N)CCCCNC(=O)CCCCCCCCC)C(=O)O)C(=O)O`, the MIC (Staphylococcus aureus) is reported as 8 µM (≈ 18.2 µg/mL), the Stability (Chymotrypsin) is reported as “Stable” and the Activity (Escherichia coli [1]) is reported as about 40%. The Activity (Escherichia coli [2]) was 100% and the Activity [3] was “Non-toxic”.
